In series [1] the test system is TNBC cell line MDA-MB-231. As to the kind of experiment: Orthotopic breast cancer xenograft in NSG mice. In kind it is in vivo. How it is done: In an embodiment, the in vivo therapeutic efficacy of compound MC408 was analysed using the mouse model. […] MDA-MB-231 cells were injected into the mammary fat pad of NSG mice (n=6 or 7 per group). Treatment was administered 3 days post-implantation for one week. NT=Vehicle; Dose 1=3 mg/kg; Dose 2=10 mg/kg; Dose 3=50 mg/kg. *, p<0.05; **, p<0.01; ****, p<0.0001 (compared to NT group; two-way ANOVA post-hoc Tukey's test or unpaired t-test with Welch's correction).
In an embodiment, NSG (NOD Scid Gamma) female mice (3-6 months) were injected with a mixture of 0.6×10^6 MDA-MB-231 breast cancer cells and matrigel (ratio 1:1) in the mammary fat pad. Mice were randomly assigned to treatment groups (at least 6 mice/group), which was started 3 days post-implantation using 3 independent doses of compound MC408 (dose 1=3 mg/kg, dose 2=10 mg/kg, and dose 3=50 mg/kg) or vehicle (PBS 1× and Matrigel, ratio 1:1), and was administered daily for 7 days. Mice were maintained under standard laboratory conditions. Animal tumor size (calculated by measuring the two largest sides and applying the formula: v=3.14×L1×L1×L2/6; being L1 the largest side, and L2 the other one) was measured and recorded regularly. At day 47 post-implantation, animals were sacrificed and tumors were excised. All animal procedures were conducted in accordance with the guidelines for the care and use of laboratory animals (European Directive 2010/63/EU).

For another series, the system named is C57BI/6 mice. Kind of series: Toxicity in C57BI/6 mice, 1st trial. In kind it is in vivo. How it is done:
In an embodiment, the safety profiles of the compounds were evaluated in rodents. […] FIG. 13A is a schematic representation of the experiment timeline. 5-month old female and male animals were used (n=3/group/gender) and injected either with MC408 3 mg/Kg or vehicle (saline, Tween80 and methylcellulose) (i.p.) daily for 7 days. A battery of welfare tests was performed daily. […] The activity was measured in a viewing jar and the number of vertical movements were counted for 5 minutes. […] The activity was recorded in an open arena labelled with squares and the number of squares were counted while the animals were freely exploring for 1 minute. […] In FIGS. 13G and H, water and food intake were analysed respectively. Each day, […] of food and 200 mL of water were placed in each cage. […] Data is presented as mean±SE.
In an embodiment, C57/BI6 female and male mice (n=3/group/gender) were intraperitoneally injected with MC408 (3 mg/Kg) or vehicle (saline, Tween80 and methylcellulose) daily, for 7 days to determine toxicity of the compounds in mice model. A battery of tests to assess mice welfare were performed daily. Immediately after the first drug administration, animals were videotaped and the immediate effects of MC408 were recorded. The number of vertical movements and the immobility time were recorded. Water and food intake were evaluated during the 7 days of the experiment, by adding a fixed amount of food and water in the animal's home cage in the 1st day and measuring the remaining amount at day 7. Body weight was assessed every day in a dynamic mouse scale. Horizontal and vertical activity was analysed to evaluate animals' intrinsic exploratory behavior; these were measured in an open arena with labelled squares for 1 minute and in a viewing jar for 5 minutes, respectively. Furthermore, the number of bolus faecalis were also counted while animals were performing the daily behavior assessment protocols, as a measure of anxiety. A battery of tests more related to animal welfare was applied by the experimenter, including measurements of: (i) body position and curvature; (ii) spontaneous activity; (iii) respiratory rate; (iv) eyelid opening and reflexes; (v) skin picking to analyse dehydration; (vi) grooming; (vii) fur erection; (viii) tremors; (ix) limb clasping and (x) reaction to transfer. At day 7, the animals were euthanized. All animals were deeply anesthetized (ketamine hydrochloride (150 mg/kg) and medetomidine (0.3 mg/kg)) and transcardially perfused with a saline solution (NaCl 0.9% (wt/v)). Blood was collected from the cava vein, centrifuged for 10 minutes at 13.000 rpm and the plasma was transferred to a new tube and stored at −80° C. until further processing for enzymatic liver function measurements using standard techniques. The organs (kidney, intestine, stomach, brain, liver, ovary/testis) were harvested and placed in tubes containing 4% paraformaldehyde and further processed for paraffin embedding and pathology analysis.

[2] abbreviates: 3, 10, 50 mg/kg daily for 7 days, dose-dependent.

The results in this text go back to patent publication US12391701B2, “Chromene-based compounds, methods and uses thereof” (University of Minho, priority 2019, dated 2025).

`COc1cccc2c1Oc1nc(-c3ccc(Br)cc3)[nH]c1C2` [MC408, 2-(4-bromophenyl)-5-methoxy-3,9-dihydrochromeno[2,3-d]imidazoles]: in series [1] (setting [2]), the tumor volume entry is “significantly decreased” and the tumor weight result was “significantly decreased”. In series [1] (dose of 50 mg/kg), the “reduction of tumor volume comparing to the vehicle group” value was “more than 40%” and the “reduction of tumor weight comparing to the vehicle group” value was “more than 40%”. The “weight loss and other side effects” value in series [1] (tested treatment regimen, whole experiment) was “no weight loss nor other side effects”. In addition, in the series on C57BI/6 mice (3 mg/Kg i.p. daily for 7 days), the “exploratory activities (vertical and horizontal)” value is recorded as “No differences were found”; the “number of bolus faecalis (indirect measure of anxiety)” value is given as “no differences were observed”. Also, the body weight result with C57BI/6 mice (3 mg/Kg i.p. daily for 7 days, 1st trial) is “no differences were found”. Further, the “water and food intake” value in the series with C57BI/6 mice (3 mg/Kg i.p. daily, measured at day 7) was “no differences were found”. Besides, the “battery of welfare tests” value in the series on C57BI/6 mice (3 mg/Kg i.p. daily, vs vehicle) is on record as “no impact”. For the same compound, the “immobility time and vertical movement (REARS) immediately after first injection” value in the series on C57BI/6 mice (3 mg/Kg i.p., 10 min, vs vehicle) is on record as “No differences were found”. Besides, in the series on C57BI/6 mice (day 7, females and males, vs vehicle), the “serum AST and ALT (enzymatic liver function)” value is given as “No statistical differences”.
